Test results published in the NIST ThermoML archive (doi:10.1021/acs.jced.5b00623).
Several values for one entry are separate records, joined by “and”; a condition that tells them apart may be missing. Equal values may be shown once. ± gives the expanded uncertainty stated by the source.

Settings: for vapor or sublimation pressure: Closed cell (Static) method

O=C(C(F)(F)C(F)(F)F)C(F)(C(F)(F)F)C(F)(F)F [dodecafluoro-2-methylpentan-3-one]
Settings	mass density [kg/m3]	speed of sound [m/s]
225.01 K, 992.5 kPa, Liquid, Buoyancy - hydrostatic balance with magnetic suspension - two sinkers	1809.67 ± 0.23	–
225.01 K, 6306.6 kPa, Liquid, Buoyancy - hydrostatic balance with magnetic suspension - two sinkers	1821.02 ± 0.23	–
235 K, 11155 kPa, Liquid, Buoyancy - hydrostatic balance with magnetic suspension - two sinkers	1806.22 ± 0.23	–
240 K, 16200 kPa, Liquid, Buoyancy - hydrostatic balance with magnetic suspension - two sinkers	1804.64 ± 0.23	–
245 K, 21227 kPa, Liquid, Buoyancy - hydrostatic balance with magnetic suspension - two sinkers	1803.18 ± 0.23	–
250 K, 26208 kPa, Liquid, Buoyancy - hydrostatic balance with magnetic suspension - two sinkers	1801.77 ± 0.23	–
260 K, 1145.1 kPa, Liquid, Buoyancy - hydrostatic balance with magnetic suspension - two sinkers	1716.09 ± 0.21	–
260 K, 6242.2 kPa, Liquid, Buoyancy - hydrostatic balance with magnetic suspension - two sinkers	1731.21 ± 0.21	–
260 K, 12122 kPa, Liquid, Buoyancy - hydrostatic balance with magnetic suspension - two sinkers	1746.98 ± 0.22	–
260 K, 18392 kPa, Liquid, Buoyancy - hydrostatic balance with magnetic suspension - two sinkers	1762.27 ± 0.22	–
260 K, 27930 kPa, Liquid, Buoyancy - hydrostatic balance with magnetic suspension - two sinkers	1783.14 ± 0.23	–
260 K, 36060 kPa, Liquid, Buoyancy - hydrostatic balance with magnetic suspension - two sinkers	1799.13 ± 0.24	–
270 K, 8922.2 kPa, Liquid, Buoyancy - hydrostatic balance with magnetic suspension - two sinkers	1713.2 ± 0.21	–
275 K, 12791 kPa, Liquid, Buoyancy - hydrostatic balance with magnetic suspension - two sinkers	1711.88 ± 0.21	–
278.15 K, 83 kPa, Liquid, Vibrating tube method	1660.83 ± 0.49	–
280 K, 16636 kPa, Liquid, Buoyancy - hydrostatic balance with magnetic suspension - two sinkers	1710.6 ± 0.21	–
283.15 K, 83 kPa, Liquid, Vibrating tube method	1646.79 ± 0.49	–
285 K, 20456 kPa, Liquid, Buoyancy - hydrostatic balance with magnetic suspension - two sinkers	1709.38 ± 0.21	–
288.15 K, 83 kPa, Liquid, Vibrating tube method	1632.33 ± 0.47	–
290 K, 24255 kPa, Liquid, Buoyancy - hydrostatic balance with magnetic suspension - two sinkers	1708.2 ± 0.22	–
293.15 K, 83 kPa, Liquid, Vibrating tube method	1617.51 ± 0.46	–
295 K, 28026 kPa, Liquid, Buoyancy - hydrostatic balance with magnetic suspension - two sinkers	1707.06 ± 0.22	–
298.15 K, 83 kPa, Liquid, Vibrating tube method	1602.48 ± 0.46	–
303 K, 1007.3 kPa, Liquid, Buoyancy - hydrostatic balance with magnetic suspension - two sinkers	1592.53 ± 0.23	–
303 K, 1089 kPa, Liquid, Buoyancy - hydrostatic balance with magnetic suspension - two sinkers	1592.94 ± 0.22	–
303 K, 5959.8 kPa, Liquid, Buoyancy - hydrostatic balance with magnetic suspension - two sinkers	1615.54 ± 0.22	–
303 K, 6069.2 kPa, Liquid, Buoyancy - hydrostatic balance with magnetic suspension - two sinkers	1616.01 ± 0.2	–
303 K, 12121 kPa, Liquid, Buoyancy - hydrostatic balance with magnetic suspension - two sinkers	1639.93 ± 0.2	–
303 K, 22348 kPa, Liquid, Buoyancy - hydrostatic balance with magnetic suspension - two sinkers	1673.62 ± 0.21	–
303 K, 28346 kPa, Liquid, Buoyancy - hydrostatic balance with magnetic suspension - two sinkers	1690.63 ± 0.22	–
303 K, 33973 kPa, Liquid, Buoyancy - hydrostatic balance with magnetic suspension - two sinkers	1705.21 ± 0.22	–
303.15 K, 83 kPa, Liquid, Vibrating tube method	1587.28 ± 0.46	–
308.15 K, 83 kPa, Liquid, Vibrating tube method	1571.82 ± 0.46	–
310 K, 4843.5 kPa, Liquid, Buoyancy - hydrostatic balance with magnetic suspension - two sinkers	1590.92 ± 0.2	–
318 K, 9214.8 kPa, Liquid, Buoyancy - hydrostatic balance with magnetic suspension - two sinkers	1589.2 ± 0.2	–
318 K, 9295.7 kPa, Liquid, Buoyancy - hydrostatic balance with magnetic suspension - two sinkers	1589.59 ± 0.2	–
324.97 K, 65.34 kPa, Gas, Spherical resonator	–	90.45 ± 0.19
324.97 K, 82.58 kPa, Gas, Spherical resonator	–	89.49 ± 0.19
324.97 K, 100.55 kPa, Gas, Spherical resonator	–	88.41 ± 0.19
324.97 K, 100.57 kPa, Gas, Spherical resonator	–	88.41 ± 0.19
324.97 K, 100.58 kPa, Gas, Spherical resonator	–	88.41 ± 0.19
326.01 K, 13558 kPa, Liquid, Buoyancy - hydrostatic balance with magnetic suspension - two sinkers	1587.57 ± 0.2	–
334.01 K, 17866 kPa, Liquid, Buoyancy - hydrostatic balance with magnetic suspension - two sinkers	1585.99 ± 0.2	–
334.02 K, 17984 kPa, Liquid, Buoyancy - hydrostatic balance with magnetic suspension - two sinkers	1586.44 ± 0.2	–
340 K, 1091.8 kPa, Liquid, Buoyancy - hydrostatic balance with magnetic suspension - two sinkers	1474.85 ± 0.18	–
340 K, 4035.6 kPa, Liquid, Buoyancy - hydrostatic balance with magnetic suspension - two sinkers	1497.23 ± 0.19	–
340 K, 7986.5 kPa, Liquid, Buoyancy - hydrostatic balance with magnetic suspension - two sinkers	1522.5 ± 0.19	–
340 K, 11938 kPa, Liquid, Buoyancy - hydrostatic balance with magnetic suspension - two sinkers	1544.06 ± 0.19	–
340 K, 16171 kPa, Liquid, Buoyancy - hydrostatic balance with magnetic suspension - two sinkers	1564.25 ± 0.2	–
340 K, 21184 kPa, Liquid, Buoyancy - hydrostatic balance with magnetic suspension - two sinkers	1585.31 ± 0.2	–
342.01 K, 22145 kPa, Liquid, Buoyancy - hydrostatic balance with magnetic suspension - two sinkers	1584.49 ± 0.2	–
349.97 K, 150.02 kPa, Gas, Spherical resonator	–	90.93 ± 0.19
349.97 K, 191.77 kPa, Gas, Spherical resonator	–	88.85 ± 0.19
349.98 K, 61.83 kPa, Gas, Spherical resonator	–	94.86 ± 0.2
349.98 K, 106.24 kPa, Gas, Spherical resonator	–	92.93 ± 0.19
350 K, 53.94 kPa, Gas, Spherical resonator	–	95.2 ± 0.2
350 K, 104.66 kPa, Gas, Spherical resonator	–	93 ± 0.19
350 K, 152.11 kPa, Gas, Spherical resonator	–	90.82 ± 0.19
350 K, 191.03 kPa, Gas, Spherical resonator	–	88.88 ± 0.19
350 K, 26385 kPa, Liquid, Buoyancy - hydrostatic balance with magnetic suspension - two sinkers	1583.04 ± 0.2	–
360 K, 1009.8 kPa, Liquid, Buoyancy - hydrostatic balance with magnetic suspension - two sinkers	1401.62 ± 0.18	–
360 K, 6002.5 kPa, Liquid, Buoyancy - hydrostatic balance with magnetic suspension - two sinkers	1449.57 ± 0.18	–
360 K, 8915.5 kPa, Liquid, Buoyancy - hydrostatic balance with magnetic suspension - two sinkers	1471.34 ± 0.19	–
360 K, 11021 kPa, Liquid, Buoyancy - hydrostatic balance with magnetic suspension - two sinkers	1485.32 ± 0.19	–
360 K, 16073 kPa, Liquid, Buoyancy - hydrostatic balance with magnetic suspension - two sinkers	1514.43 ± 0.19	–
360 K, 21146 kPa, Liquid, Buoyancy - hydrostatic balance with magnetic suspension - two sinkers	1539.18 ± 0.2	–
360 K, 31620 kPa, Liquid, Buoyancy - hydrostatic balance with magnetic suspension - two sinkers	1581.19 ± 0.21	–
370 K, 4182.9 kPa, Liquid, Buoyancy - hydrostatic balance with magnetic suspension - two sinkers	1400.06 ± 0.18	–
375.01 K, 57.06 kPa, Gas, Spherical resonator	–	98.91 ± 0.2
375.01 K, 123.45 kPa, Gas, Spherical resonator	–	96.64 ± 0.2
375.01 K, 220.4 kPa, Gas, Spherical resonator	–	93.07 ± 0.19
375.01 K, 316.42 kPa, Gas, Spherical resonator	–	89.11 ± 0.19
380 K, 7353.3 kPa, Liquid, Buoyancy - hydrostatic balance with magnetic suspension - two sinkers	1398.51 ± 0.18	–
380.04 K, 16688 kPa, Liquid, Buoyancy - hydrostatic balance with magnetic suspension - two sinkers	1468.1 ± 0.19	–
385.99 K, 9254.1 kPa, Liquid, Buoyancy - hydrostatic balance with magnetic suspension - two sinkers	1397.63 ± 0.18	–
393.98 K, 11788 kPa, Liquid, Buoyancy - hydrostatic balance with magnetic suspension - two sinkers	1396.48 ± 0.18	–
400 K, 2018.5 kPa, Liquid, Buoyancy - hydrostatic balance with magnetic suspension - two sinkers	1244.05 ± 0.17	–
400 K, 3987.4 kPa, Liquid, Buoyancy - hydrostatic balance with magnetic suspension - two sinkers	1284.55 ± 0.17	–
400 K, 8129.1 kPa, Liquid, Buoyancy - hydrostatic balance with magnetic suspension - two sinkers	1342.48 ± 0.18	–
400.01 K, 11999 kPa, Liquid, Buoyancy - hydrostatic balance with magnetic suspension - two sinkers	1381.28 ± 0.18	–

83 kPa, Liquid, Frequency=3 MHz, Sing-around technique in a fixed-path interferometer
Settings	speed of sound [m/s]
278.15 K	567.88 ± 0.89
283.15 K	551.54 ± 0.89
288.15 K	535.45 ± 0.88
293.15 K	519.58 ± 0.88
298.15 K	503.72 ± 0.88
303.15 K	488.11 ± 0.87
308.15 K	472.63 ± 0.87

Liquid
Settings	vapor or sublimation pressure
324.96 K	111.4 ± 1.3 kPa and 111.4 ± 1.4 kPa
324.97 K	111.4 ± 1.4 kPa and 111.3 ± 1.4 kPa
324.98 K	111.6 ± 1.3 kPa
339.95 K	180.3 ± 1.4 kPa
349.99 K	242.7 ± 1.4 kPa
354.98 K	278.7 ± 1.4 kPa
370 K	413.4 ± 1.5 kPa
374.99 K	467.9 ± 1.6 kPa and 467.6 ± 1.6 kPa
390.03 K	663.7 ± 1.8 kPa
